Experimental data: paper PMC3240716 (Journal of medicinal chemistry, 2011)
“Also recorded” adds a separate entry of the source. One block for each compound: values may come before it.

Tests used:
Hα4β2 nAChRs = Hα4β2 nAChRs (Homo sapiens, UniProt P17787+P43681); test: Calcium accumulation assay, HEK ts201 cells stably expressing Hα4β2 nAChRs; format: cell-based; settings: for effect / activity on Hα4β2 nAChRs: up to 100 µM
Hα3β4 nAChRs = Hα3β4 nAChRs (Homo sapiens, UniProt P30926+P32297); test: Calcium accumulation assay, HEK ts201 cells stably expressing Hα3β4 nAChRs; format: cell-based; settings: for effect / activity on Hα3β4 nAChRs: up to 100 µM
[1] = 30 µM compound, competitive vs non-competitive test, n=4
[2] = approximate, concentration used in Figure 1

Chain of Hα4β2 nAChRs (P43681 29-627 limits assumed): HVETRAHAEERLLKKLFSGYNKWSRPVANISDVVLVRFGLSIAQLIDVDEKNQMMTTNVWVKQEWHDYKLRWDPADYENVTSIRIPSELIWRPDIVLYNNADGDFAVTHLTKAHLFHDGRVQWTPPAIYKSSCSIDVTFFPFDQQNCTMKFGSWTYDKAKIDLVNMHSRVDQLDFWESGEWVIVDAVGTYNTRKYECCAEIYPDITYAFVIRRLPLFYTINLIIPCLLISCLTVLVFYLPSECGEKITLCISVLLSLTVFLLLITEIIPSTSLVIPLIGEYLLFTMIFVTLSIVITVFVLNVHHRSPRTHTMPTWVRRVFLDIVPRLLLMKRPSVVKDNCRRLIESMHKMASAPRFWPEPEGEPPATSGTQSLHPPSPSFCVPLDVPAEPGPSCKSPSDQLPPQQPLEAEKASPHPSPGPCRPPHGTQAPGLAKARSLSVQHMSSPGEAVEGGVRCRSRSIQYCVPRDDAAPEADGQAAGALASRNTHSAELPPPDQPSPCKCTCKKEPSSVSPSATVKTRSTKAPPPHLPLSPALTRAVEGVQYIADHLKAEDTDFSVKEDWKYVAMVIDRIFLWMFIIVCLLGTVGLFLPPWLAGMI
Chain of Hα4β2 nAChRs (P17787 26-502): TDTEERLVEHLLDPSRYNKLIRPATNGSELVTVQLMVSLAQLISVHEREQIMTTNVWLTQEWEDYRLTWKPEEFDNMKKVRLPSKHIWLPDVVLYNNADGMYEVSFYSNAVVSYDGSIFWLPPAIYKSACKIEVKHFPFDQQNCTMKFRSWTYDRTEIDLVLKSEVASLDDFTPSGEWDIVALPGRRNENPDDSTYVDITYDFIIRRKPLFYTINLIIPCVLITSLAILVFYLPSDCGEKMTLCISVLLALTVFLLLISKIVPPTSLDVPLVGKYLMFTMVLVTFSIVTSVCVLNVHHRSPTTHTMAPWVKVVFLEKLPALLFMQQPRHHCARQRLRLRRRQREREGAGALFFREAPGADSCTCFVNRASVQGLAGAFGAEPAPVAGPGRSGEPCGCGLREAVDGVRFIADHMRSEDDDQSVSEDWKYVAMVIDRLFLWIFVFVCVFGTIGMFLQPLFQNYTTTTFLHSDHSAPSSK
Chain of Hα3β4 nAChRs (P32297 32-505): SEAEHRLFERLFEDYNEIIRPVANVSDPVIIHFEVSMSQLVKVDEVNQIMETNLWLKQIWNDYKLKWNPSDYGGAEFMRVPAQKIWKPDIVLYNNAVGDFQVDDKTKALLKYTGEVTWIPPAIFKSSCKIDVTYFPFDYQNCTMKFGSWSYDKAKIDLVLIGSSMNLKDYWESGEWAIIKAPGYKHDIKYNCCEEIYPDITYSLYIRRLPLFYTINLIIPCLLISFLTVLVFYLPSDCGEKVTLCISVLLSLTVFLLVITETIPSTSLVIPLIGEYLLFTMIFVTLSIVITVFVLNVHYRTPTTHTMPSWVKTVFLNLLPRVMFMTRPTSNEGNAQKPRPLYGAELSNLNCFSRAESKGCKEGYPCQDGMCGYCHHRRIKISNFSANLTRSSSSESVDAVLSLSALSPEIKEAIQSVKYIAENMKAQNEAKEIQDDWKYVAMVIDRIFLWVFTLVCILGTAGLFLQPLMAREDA
Chain of Hα3β4 nAChRs (P30926 22-498): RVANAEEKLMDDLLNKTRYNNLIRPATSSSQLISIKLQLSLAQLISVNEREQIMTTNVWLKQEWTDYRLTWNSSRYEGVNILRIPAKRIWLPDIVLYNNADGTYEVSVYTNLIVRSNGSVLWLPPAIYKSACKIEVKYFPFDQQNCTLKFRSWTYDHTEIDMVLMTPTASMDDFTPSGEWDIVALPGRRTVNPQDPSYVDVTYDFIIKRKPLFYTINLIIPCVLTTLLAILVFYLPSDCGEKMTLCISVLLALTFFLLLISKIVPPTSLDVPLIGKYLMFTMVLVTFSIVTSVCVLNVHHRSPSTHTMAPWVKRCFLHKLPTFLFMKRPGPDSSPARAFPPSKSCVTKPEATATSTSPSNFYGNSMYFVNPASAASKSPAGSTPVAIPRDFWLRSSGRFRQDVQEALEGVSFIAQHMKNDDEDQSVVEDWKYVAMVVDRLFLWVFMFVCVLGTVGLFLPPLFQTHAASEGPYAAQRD

effect on epibatidine concentration-response, Hα4β2 nAChRs (Hα4β2 nAChRs; [1]): reduced the maximum efficacy
IC70, Hα4β2 nAChRs (Hα4β2 nAChRs; [2]): ~30 µM
effect on epibatidine concentration-response, Hα3β4 nAChRs (Hα3β4 nAChRs; [1]): reduced the maximum efficacy
IC70, Hα3β4 nAChRs (Hα3β4 nAChRs; [2]): ~30 µM
SMILES: O=C(CN1CCN(S(=O)(=O)c2ccc(F)cc2)CC1)Nc1ccccc1F [Compound 1, N-(2-fluorophenyl)-2-(4-((4-fluorophenyl)sulfonyl)piperazin-1-yl)acetamide]

effect / activity on Hα4β2 nAChRs (Hα4β2 nAChRs): no effect
effect / activity on Hα3β4 nAChRs (Hα3β4 nAChRs): no effect
SMILES: O=S(=O)(c1ccc(F)cc1)N1CCNCC1 [Compound 3, 1-([4-fluorophenyl]sulfonyl)piperazine]

change in potency for Hα4β2 nAChRs (Hα4β2 nAChRs; compared to lead compound 1): slight increase
fold decrease in potency for Hα3β4 nAChRs (Hα3β4 nAChRs; compared to lead compound 1): 3 fold
SMILES: O=C(CN1CCN(S(=O)(=O)c2ccc(F)cc2)CC1)Nc1ccc2[nH]ncc2c1 [Compound 11, 2-(4-((4-fluorophenyl)sulfonyl)piperazin-1-yl)-N-(1H-indazol-5-yl)acetamide]

change in potency for Hα4β2 nAChRs (Hα4β2 nAChRs; compared to lead compound 1): significant decrease
change in potency for Hα3β4 nAChRs (Hα3β4 nAChRs; compared to lead compound 1): significant decrease
SMILES: O=C(CN1CCN(S(=O)(=O)c2ccc(F)cc2)CC1)Nc1cc[nH]n1 [Compound 12, 2-(4-((4-fluorophenyl)sulfonyl)piperazin-1-yl)-N-(1H-pyrazol-3-yl)acetamide]
effect / activity on Hα4β2 nAChRs (Hα4β2 nAChRs): abolished activity; also recorded: loss of activity
effect / activity on Hα3β4 nAChRs (Hα3β4 nAChRs): abolished activity; also recorded: loss of activity

fold decrease in potency for Hα4β2 nAChRs (Hα4β2 nAChRs; compared to lead compound 1): 2 fold
fold decrease in potency for Hα3β4 nAChRs (Hα3β4 nAChRs; compared to lead compound 1): 3 fold
SMILES: COc1ccc(NC(=O)CN2CCN(S(=O)(=O)c3ccc(F)cc3)CC2)cc1 [Compound 13, 2-(4-((4-fluorophenyl)sulfonyl)piperazin-1-yl)-N-(4-methoxyphenyl)acetamide]

change in potency for Hα4β2 nAChRs (Hα4β2 nAChRs; compared to lead compound 1): no significant change
change in potency for Hα3β4 nAChRs (Hα3β4 nAChRs; compared to lead compound 1): no significant change
SMILES: O=C(CN1CCN(S(=O)(=O)c2ccc(F)cc2)CC1)Nc1ccc(F)cc1 [Compound 14, N-(4-fluorophenyl)-2-(4-((4-fluorophenyl)sulfonyl)-piperazin-1-yl)acetamide]

change in potency for Hα4β2 nAChRs (Hα4β2 nAChRs; compared to lead compound 1): no significant change
fold decrease in potency for Hα3β4 nAChRs (Hα3β4 nAChRs; compared to lead compound 1): 2 fold
SMILES: O=C(CN1CCN(S(=O)(=O)c2ccc(F)cc2)CC1)Nc1ccccc1 [Compound 15, 2-(4-((4-fluorophenyl)sulfonyl)piperazin-1-yl)-N-phenylacetamide]

change in potency for Hα4β2 nAChRs (Hα4β2 nAChRs; compared to lead compound 1): no significant change
SMILES: O=C(CN1CCN(S(=O)(=O)c2ccccc2F)CC1)Nc1ccccc1F [Compound 16, N-(2-fluorophenyl)-2-(4-((2-fluorophenyl)sulfonyl)-piperazin-1-yl)acetamide]

fold decrease in potency for Hα4β2 nAChRs (Hα4β2 nAChRs; compared to lead compound 1): 2 fold
fold decrease in potency for Hα3β4 nAChRs (Hα3β4 nAChRs; compared to lead compound 1): 5 fold
SMILES: O=C(CN1CCN(S(=O)(=O)c2cccnc2)CC1)Nc1ccccc1F [Compound 17, N-(2-fluorophenyl)-2-(4-(pyridin-3-ylsulfonyl)piperazin-1-yl)acetamide]

fold increase in potency for Hα4β2 nAChRs (Hα4β2 nAChRs; compared to lead compound 1): 2 fold
fold increase in potency for Hα3β4 nAChRs (Hα3β4 nAChRs; compared to lead compound 1): 2 fold
SMILES: O=C(CN1CCN(S(=O)(=O)c2ccccc2)CC1)Nc1ccccc1F [Compound 18, N-(2-fluorophenyl)-2-(4-(phenylsulfonyl)piperazin-1-yl)acetamide]

change in potency for Hα4β2 nAChRs (Hα4β2 nAChRs; compared to lead compound 1): no significant change
change in potency for Hα3β4 nAChRs (Hα3β4 nAChRs; compared to lead compound 1): no significant change
SMILES: COc1ccc(S(=O)(=O)N2CCN(CC(=O)Nc3ccccc3F)CC2)cc1 [Compound 19, N-(2-fluorophenyl)-2-(4-((4-methoxyphenyl)sulfonyl)-piperazin-1-yl)acetamide]

change in potency for Hα4β2 nAChRs (Hα4β2 nAChRs; compared to analog 16): no change
fold increase in potency for Hα3β4 nAChRs (Hα3β4 nAChRs; compared to analog 16): 6 fold
SMILES: O=C(CN1CCN(S(=O)(=O)c2ccccc2F)CC1)Nc1ccc(F)cc1 [Compound 20, N-(4-fluorophenyl)-2-(4-((2-fluorophenyl)sulfonyl)-piperazin-1-yl)acetamide]

fold decrease in potency for Hα4β2 nAChRs (Hα4β2 nAChRs; compared to analog 16): 2 fold
fold increase in potency for Hα3β4 nAChRs (Hα3β4 nAChRs; compared to analog 16): 4 fold
SMILES: COc1ccc(NC(=O)CN2CCN(S(=O)(=O)c3ccccc3F)CC2)cc1 [Compound 21, 2-(4-((2-fluorophenyl)sulfonyl)piperazin-1-yl)-N-(4-methoxyphenyl)acetamide]

change in potency for Hα4β2 nAChRs (Hα4β2 nAChRs; compared to analog 16): no significant change
fold increase in potency for Hα3β4 nAChRs (Hα3β4 nAChRs; compared to analog 16): 8 fold
SMILES: COC(=O)c1ccc(NC(=O)CN2CCN(S(=O)(=O)c3ccccc3F)CC2)cc1 [Compound 22, methyl 4-(2-(4-((2-fluorophenyl)sulfonyl)piperazin-1-yl)acetamido)benzoate]

effect / activity on Hα4β2 nAChRs (Hα4β2 nAChRs): loss of activity
effect / activity on Hα3β4 nAChRs (Hα3β4 nAChRs): loss of activity
SMILES: O=C(CN1CCN(S(=O)(=O)c2ccccc2F)CC1)Nc1ccc(C(=O)O)cc1 [Compound 23, 4-(2-(4-((2-fluorophenyl)sulfonyl)piperazin-1-yl)acetamido)benzoic acid]

effect / activity on Hα4β2 nAChRs (Hα4β2 nAChRs): loss of activity
effect / activity on Hα3β4 nAChRs (Hα3β4 nAChRs): loss of activity
SMILES: O=C(CN1CCN(S(=O)(=O)c2ccccc2F)CC1)Nc1cc[nH]n1 [Compound 24, 2-(4-((2-fluorophenyl)sulfonyl)piperazin-1-yl)-N-(1H-pyrazol-3-yl)acetamide]

change in potency for Hα4β2 nAChRs (Hα4β2 nAChRs; compared to lead compound 1): significant decrease
change in potency for Hα3β4 nAChRs (Hα3β4 nAChRs; compared to lead compound 1): significant decrease
SMILES: COc1ccc(NC(=O)CN2CCN(S(=O)(=O)c3cccnc3)CC2)cc1 [Compound 26, N-(4-methoxyphenyl)-2-(4-(pyridin-3-ylsulfonyl)-piperazin-1-yl)acetamide]

fold decrease in potency for Hα4β2 nAChRs (Hα4β2 nAChRs; compared to lead compound 1): 2 fold
fold decrease in potency for Hα3β4 nAChRs (Hα3β4 nAChRs; compared to lead compound 1): 2 fold
SMILES: COc1ccc(S(=O)(=O)N2CCN(CC(=O)Nc3ccc(F)cc3)CC2)cc1 [Compound 28, N-(4-fluorophenyl)-2-(4-((4-methoxyphenyl)sulfonyl)-piperazin-1-yl)acetamide]
